Measured values as given in patent US20230312744A1, “Modulatory Substance of Tumor Immune Microenvironment, and Preventive, Diagnostic and/or Therapeutic Utilization of the Same” (The University Of Tokyo, priority 2020, published 2023).
Blank lines part the entries; values can stand above or below the molecule they belong to.

How the values were obtained:
[1] = system: IL-2ss-TCTP tumors; experiment: Proliferation assay of subcutaneously transplanted IL-2ss-TCTP SL4 tumor in C57BL/6 mice; type: in vivo, mouse; conditions: 50 mg/kg orally, FIG. 11(i)
Description: In FIG. 11(a), PECs (2×10^5 cells) or SL4 cells (1×10^5 cells) were stimulated with recombinant TCTP for 2 hours. Thereafter, Cxcl1 mRNA was quantified by qRT-PCR (n=3). In FIG. 11(b), the Cxcl1 mRNA of TCTP WO SL4 cells and TCTP KO SL4 cells was quantified by RT-qPCR. n=3. In FIG. 11(c), SL4 cells (2×10^5 cells) were subcutaneously transplanted into C57BL/6 mice (n=3). On Day 21 after the transplantation, single cell suspensions were prepared from tumors. Thereafter, various immune cells (PMN-MDSCs, M-MDSCs, TAMS, DCs, T cells, B cells, and NK cells) were separated, and the Cxcl2 mRNA of individual cells was then quantified by qRT-PCR. In FIG. 11(d), PECs (2×10^5 cells) were stimulated with recombinant IL-la for 2 hours. Thereafter, Cxcl1 mRNA was quantified by qRT-PCR (n=3). […] HEK293T cells transiently expressing TLR2-YFP and Flag-TCTP were subjected to immunoprecipitation with an anti-GFP antibody, and thereafter, were analyzed with an anti-Flag antibody (upper view), and TLR2 and TCTP in the whole cell lysate were detected (lower view). […] The tumor volume was measured over time. In FIG. 11(i), IL-2ss-TCTP SL4 cells (2×10^5 cells) were subcutaneously transplanted into C57BL/6 mice, and the tumor volume was then measured over time. […]

[2] = target: T1, mouse TCTP (mouse, UniProt P63028 1-172); experiment: immunoblotting of whole cell lysates of TCTP WT and TCTP KO SL4 cells
T1 construct: also called TCTP in the whole cell lysate of TCTP WT SL4 cells; TCTP released from dead SL4 cells
T1 sequence (looked up): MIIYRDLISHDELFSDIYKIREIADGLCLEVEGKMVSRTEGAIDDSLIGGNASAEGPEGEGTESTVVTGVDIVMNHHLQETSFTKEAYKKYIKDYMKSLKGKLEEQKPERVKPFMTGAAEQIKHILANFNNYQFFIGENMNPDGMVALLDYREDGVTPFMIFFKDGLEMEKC

Molecule: COc1cccc(C=O)c1O [O -vanillin, O-vanillin]
proliferation of IL-2ss-TCTP tumors [1]: suppressed

binding result [2]: binds
B1: 55F3 antibody (antibody, V domains shown)
VH: DVQLQESGPGLVKPSQSLSLTCTATGYSIASDYAWNWIRQFPGNKLEWMGYINYSGSTGYNPSLKSRISITRDTSKNQFFLQLNSVTTEDTATYYCARFEAGYWGQGTTLTVSS
VL: DIKMTQSPSSMSASLGERVTITCKASQDINRYLSWFQQKPGKSPKTLIYRANRLVDGVPSRFSGSGSGQDYSLTISSLEYGDMGIYYCLQYNEFPLTFGAGTKLELKR
notes: also called 55F3E5; 55F3E5 (55F3) monoclonal antibody
